This is an account of results in patent publication US7622581B2, “6,7,8,9-substituted 1-phenyl-1,5-dihydro-pyrido[3,2-b]indol-2-ones useful as anti-infective pharmaceutical agents” (Tibotec Pharmaceuticals Ltd., priority 2004, dated 2009).

The test system of this assay is HIV. Put plainly: Cellular assay: anti-viral activity in HIV-infected MT4 cells (MTT viability). Particulars: Human immunodeficiency virus 1, 120 h, five days incubation, MTT readout, negative logarithm of EC50 (protection of 50% of cells from cytopathogenic effect of the virus). Format: cell-based. The protocol:
The compounds of the present invention were examined for anti-viral activity in a cellular assay, which was performed according to the following procedure.
HIV- or mock-infected MT4 cells were incubated for five days in the presence of various concentrations of the inhibitor. At the end of the incubation period, the replicating virus in the control cultures has killed all HIV-infected cells in the absence of any inhibitor. Cell viability was determined by measuring the concentration of MTT, a yellow, water soluble tetrazolium dye that is converted to a purple, water insoluble formazan in the mitochondria of living cells only. Upon solubilization of the resulting formazan crystals with isopropanol, the absorbance of the solution was monitored at 540 nm. The values correlate directly to the number of living cells remaining in the culture at the completion of the five day incubation. The inhibitory activity of the compound was monitored on the virus-infected cells and was expressed as EC50 and EC90. These values represent the amount of the compound required to protect 50% and 90%, respectively, of the cells from the cytopathogenic effect of the virus. The toxicity of the compound was measured on the mock-infected cells and was expressed as CC50, which represents the concentration of compound required to inhibit the growth of the cells by 50%. The selectivity index (SI) (ratio CC50/EC50) is an indication of the selectivity of the anti-HIV activity of the inhibitor. Wherever results are reported as e.g. pEC50 or pCC50 values, the result is expressed as the negative logarithm of the result expressed as EC50 or CC50 respectively.

SMILES strings stand for the structures.

Compound `Cn1c2cc(O)ccc2c2c1cc(C#N)c(=O)n2-c1ccc([N+](=O)[O-])cc1` [Compound 32] gave an EC50 of 1260 nM. This counts as single-digit micromolar.
With `Cn1c2cc(F)c(F)cc2c2c1cc(C#N)c(=O)n2-c1ccc([N+](=O)[O-])cc1` [Compound 15] the figure was 398 nM; with `Cc1ccc2c(c1)c1c(cc(C#N)c(=O)n1-c1ccc([N+](=O)[O-])cc1)n2C` [Compound 26], 15800 nM; with `COC(=O)c1ccc2c(c1)c1c(cc(C#N)c(=O)n1-c1ccc([N+](=O)[O-])cc1)n2C` [Compound 12], 2000 nM.
The compound `COC(=O)c1ccc2c(c1)c1c(cc(C#N)c(=O)n1-c1ccc(N)cc1)n2C` [Compound 9] showed an EC50 of 15800 nM.
With `N#Cc1cc2[nH]c3cc(F)c(F)cc3c2n(-c2ccc([N+](=O)[O-])cc2)c1=O` [Compound 28] the figure was 2510 nM.
In the case of `COc1ccc2c(c1)c1c(cc(C#N)c(=O)n1-c1ccc([N+](=O)[O-])cc1)n2C` [Compound 27, 8-methoxy-5-methyl-1-(4-nitro-phenyl)-2-oxo-2,5-dihydro-1H-pyrido[3,2-b]indole-3-carbonitrile], the 50% effective concentration (EC50) is 79.4 nM. This EC50 is about 32-fold lower than that of the compound before.
Under `Cn1c2ccc(N)cc2c2c1cc(C#N)c(=O)n2-c1ccc([N+](=O)[O-])cc1` [Compound 8] stands 20000 nM.
Regarding `Cn1c2ccc(N3CCOCC3)cc2c2c1cc(C#N)c(=O)n2-c1ccc([N+](=O)[O-])cc1` [Compound 3, 8-morpholin-5-methyl-1-(4-nitro-phenyl)-2-oxo-2,5-dihydro-1H-pyrido[3,2-b]indole-3-carbonitrile], the midpoint of the response, the EC50, lay at 2510 nM. This EC50 is about 8-fold lower than that of the compound before.
The compound `CN(C)CCCN(C)c1ccc2c(c1)c1c(cc(C#N)c(=O)n1-c1ccc([N+](=O)[O-])cc1)n2C` [Compound 7, 8-[(3-Dimethylamino-propyl)-methylamino]-5-methyl-1-(4-nitro-phenyl)-2-oxo-2,5-dihydro-1H-pyrido[3,2-b]indole-3-carbonitrile] showed a 50% effective concentration (EC50) of 158 nM.
In turn, `CN1CCN(c2ccc3c(c2)c2c(cc(C#N)c(=O)n2-c2ccc([N+](=O)[O-])cc2)n3C)CC1` [Compound 4] had an EC50 of 316 nM.
With `COc1cc2c(cc1F)c1c(cc(C#N)c(=O)n1-c1ccc([N+](=O)[O-])cc1)n2C` [Compound 16] the figure was 3980 nM; with `Cn1c2ccc(O)cc2c2c1cc(C#N)c(=O)n2-c1ccc([N+](=O)[O-])cc1` [Compound 29, 8-hydroxy-5-methyl-1-(4-nitro-phenyl)-2-oxo-2,5-dihydro-1H-pyrido[3,2-b]indole-3-carbonitrile], 200 nM.
Under `CN(C)CCCOc1ccc2c(c1)c1c(cc(C#N)c(=O)n1-c1ccc([N+](=O)[O-])cc1)n2C` [Compound 18, 8-[(3-Dimethylamino-propyl)-oxy]-5-methyl-1-(4-nitro-phenyl)-2-oxo-2,5-dihydro-1H-pyrido[3,2-b]indole-3-carbonitrile] stands 251 nM.
